Data: patent US20230109839A1, “THERAPEUTIC AGENT FOR TAUOPATHIES” (SUMITOMO PHARMA CO., LTD., priority 2020, published 2023)
Each block holds one molecule with its values, some of them ahead of it.

Experiments:
rTg4510 mice = assay: Cerebral atrophy in rTg4510 mice, MRI volume of brain regions (Test 5); assay type: in vivo, mouse; settings: for volume cerebellum / volume cerebral neocortex / volume hippocampus / volume lateral ventricle: 5.8 mg/g-food from the age of 4 months; for age-dependent increase in lateral ventricular volume vs non-administration group: mixed diet 3 mg/g-food with ABT 1 mg/g-food
Excerpt: (§1) Test 5: Evaluation of Intracerebral Tau Aggregate Accumulation and Cerebral Atrophy Using rTg4510 Mice
(§2) This test is a test to evaluate the effects of the compounds on intracerebral tau aggregate accumulation and cerebral atrophy. The rTg4510 mice overexpress the human-type FTDP-17 mutant tau in the forebrain, and month-age-dependent intracerebral tau aggregate accumulation and cerebral atrophy are observed. The rTg4510 mice used herein were produced by mating Tg (tauP301L) 4510 mice (Stock No. 015815) and CaMKII-tTA mice (Stock No. 007004) purchased from The Jackson Laboratory and breeding them.
(§3) The test compound was administered as a mixed diet to rTg4510 mice from the age of 4 months, and PET scan and MRI were performed at the ages of 4, 6 and 8 months to quantitatively evaluate the amount of the intracerebral tau aggregate accumulated and cerebral atrophy. The PET scan was performed using MicroPET Focus 220 of Siemens Medical Solutions (0.851 mm thick (intercenter) 95 slices, 19.0 cm axial field of view (FOV), and 7.6 cm intra-section FOV). The administration of radioactive compound [^18F] PM-PBB3 (precursor obtained from Aprinoia) and the PET scan were performed in dimly lit after the mice was treated with 1.5% isoflurane anesthesia to avoid […] of the radioactive compound. The emission scan was performed for 60 minutes immediately after the intravenous administration of [^18F] PM-PBB3 (1 mCi) (3D list mode, energy window: 350-750 keV). Then, the list mode data sorted into 3D synograms were converted into 2D synograms by Fourier-rebinding (frames: 4×1, 8×2 and 8×5 minutes). The dynamic image for 60 minutes after the administration of [^18F] PM-PBB3 was reconstructed by a filter-corrected back projection with a 0.5 mm Hanning filter. Regions of interest (ROI) were set in multiple brain regions using PMOD image analysis software (PMOD Technology) with reference to the MRI templates and the PET reconstructed images. Tau aggregate accumulation was evaluated by calculating SUVR (Standardized uptake value ratio) with the cerebellum as a reference region, based on the added average of dynamic images from 40 minutes to 60 minutes.
The evaluation of cerebral atrophy was performed with horizontal superconducting magnet type MRI (7T, inner diameter 400 mm, self-shielding type, zero boil-off type). The imaging was performed under isoflurane anesthesia while maintaining the rectal temperature at 36.5±0.5° C. After Tripilot acquisition, the brain images were acquired by TurboRARE T2 emphasis sequence (TR: 4200 ms, TE: 36 ms, Fat-Sup: on, NA: 4, RARE factor: 8, scan time: 14 min) (FOV read: 25.6 mm, FOV P1: 14.5 mm, Slice thickness: 0.5 mm, number of slices: 28). The ROI of each brain region was set in each of the acquired slices, and the volume of the brain region was calculated by summing the ROI areas of all the slices to evaluate the effect of the test compound.

[1] = tested on: intracerebral tau aggregate accumulation; assay: Intracerebral tau aggregate accumulation in rTg4510 mice, tau PET with [18F] PM-PBB3, SUVR (Test 5); assay type: in vivo, mouse
Excerpt: as §1, §2, §3

human Nav1.1 = target: T1, human Nav1.1 (Homo sapiens, UniProt P35498); assay: Amplification of Nav1.1-derived voltage-gated sodium current (Nav1.1 current), automated patch clamp (Test 1); assay type: cell-based; settings: HEK293, Concentration for evaluation 1 μM; HEK293 cell line stably expressing human Nav1.1; read-out: Nav1.1 current amplification rate (%)
T1 construct: host or cells: HEK293
How it was run: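 Compound-induced change in ramp-evoked sodium current peak and AUC was expressed as 100×post/pre ratio minus 100. Recordings used automated patch clamp in voltage-clamp mode on a stable human Nav1.1 HEK293 line, including only cells above 500 pA. Compounds were delivered in extracellular fluid containing 1% DMSO.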

[2] = diet 5.8 mg/g-food from the age of 4 months
[3] = diet 5.8 mg/g-food from the age of 4 months, ages 4, 6 and 8 months, vs non-administration group
[4] = 4 month old, 5.8 mg/g-food from the age of 4 months
[5] = 6 month old, 5.8 mg/g-food from the age of 4 months
[6] = 8 month old, 5.8 mg/g-food from the age of 4 months
[7] = mixed diet 0.7 and 6.6 mg/g-food
[8] = 4 month old, 3 mg/g-food, with ABT 1 mg/g-food
[9] = 6 month old, 3 mg/g-food, with ABT 1 mg/g-food
[10] = 8 month old, 3 mg/g-food, with ABT 1 mg/g-food

SMILES: CC1CCN(c2ccc(=O)n(CC(=O)Nc3ccc(C#N)cc3)n2)CC1 [Example 1, N-(4-Cyanophenyl)-2-[3-(4-methylpiperidin-1-yl)-6-oxopyridazin-1(6H)-yl]acetamide]
volume cerebellum (rTg4510 mice; 4 month old): 34.3 ± 0.19 mm^3 | volume cerebral neocortex (rTg4510 mice; 4 month old): 60.1 ± 0.49 mm^3 | volume hippocampus (rTg4510 mice; 4 month old): 14.0 ± 0.13 mm^3 | volume lateral ventricle (rTg4510 mice; 4 month old): 0.79 ± 0.014 mm^3 | volume cerebellum (rTg4510 mice; 6 month old): 33.9 ± 0.18 mm^3 | volume cerebral neocortex (rTg4510 mice; 6 month old): 50.9 ± 0.98 mm^3 | volume hippocampus (rTg4510 mice; 6 month old): 12.6 ± 0.22 mm^3 | volume lateral ventricle (rTg4510 mice; 6 month old): 1.70 ± 0.312 mm^3 | volume cerebellum (rTg4510 mice; 8 month old): 33.4 ± 0.33 mm^3 | volume cerebral neocortex (rTg4510 mice; 8 month old): 45.3 ± 1.13 mm^3 | volume hippocampus (rTg4510 mice; 8 month old): 12.7 ± 0.12 mm^3 | volume lateral ventricle (rTg4510 mice; 8 month old): 0.61 ± 0.036 mm^3 | age-dependent cerebral atrophy in the cerebral neocortex and hippocampus (volume, FIG. 2) (rTg4510 mice; [2]): statistically significantly suppressed | age-dependent increase in the lateral ventricular volume (FIG. 2) (rTg4510 mice; [2]): statistically significantly suppressed | cerebral atrophy and enlargement of the lateral ventricle with aging (T2-weighted images, FIG. 1) (rTg4510 mice; [3]): significantly suppressed | SUVR(cerebellum ratio) cerebral neocortex [1, 4]: 0.986 ± 0.009 | SUVR(cerebellum ratio) hippocampus [1, 4]: 1.078 ± 0.009 | SUVR(cerebellum ratio) cerebral neocortex [1, 5]: 1.098 ± 0.013 | SUVR(cerebellum ratio) hippocampus [1, 5]: 1.182 ± 0.016 | SUVR(cerebellum ratio) cerebral neocortex [1, 6]: 1.184 ± 0.017 | SUVR(cerebellum ratio) hippocampus [1, 6]: 1.284 ± 0.024 | age-dependent increase in SUVR in the cerebral neocortex and hippocampus (FIG. 3) [1, 2]: statistically significantly suppressed | increase in tau PET tracer accumulation in each region with aging (SUVR average images, FIG. 1) [1, 3]: significantly suppressed

activation at 1 µM (human Nav1.1): 249%
SMILES: CC1CC=C(c2cnc3cnn(CC(=O)Nc4ccn5ncnc5c4)c3n2)CC1 (stereo not drawn) [Example 577, 2-[6-(4-methylcyclohex-1-en-1-yl)-1H-pyrazolo[3,4-b]pyrazin-1-yl]-N-([1,2,4]triazolo[1,5-a]pyridin-7-yl)acetamide]
suppression of cerebral atrophy (rTg4510 mice; [7]): no suppression | individuals that did not show any increase in the SUVR from the age of 6 months to the age of 8 months ([1]; mixed diet 0.7 mg/g-hood administration group): 3 out of 5 | individuals that did not show any increase in the SUVR from the age of 6 months to the age of 8 months ([1]; mixed diet 6.6 mg/g-hood administration group): 3 out of 6 | accumulation of tau aggregates (suggested from SUVR) [1, 7]: suppressed

activation at 1 µM (human Nav1.1): 111%
SMILES: CN(c1ncc2cnn(CC(=O)Nc3ccn4ncnc4c3)c2n1)C1CCCC1 [Example 795, 2-{6-[cyclopentyl(methyl)amino]-1H-pyrazolo[3,4-d]pyrimidin-1-yl}-N-([1,2,4]triazolo[1,5-a]pyridin-7-yl)acetamide]
age-dependent increase in lateral ventricular volume vs non-administration group (rTg4510 mice; at the age of 6 months): tendency to suppress | age-dependent increase in lateral ventricular volume vs non-administration group (rTg4510 mice; at the age of 8 months): not different | SUVR(cerebellum ratio) cerebral neocortex [1, 8]: 1.023 ± 0.009 | SUVR(cerebellum ratio) hippocampus [1, 8]: 1.134 ± 0.042 | SUVR(cerebellum ratio) cerebral neocortex [1, 9]: 1.149 ± 0.031 | SUVR(cerebellum ratio) hippocampus [1, 9]: 1.308 ± 0.044 | SUVR(cerebellum ratio) cerebral neocortex [1, 10]: 1.268 ± 0.036 | SUVR(cerebellum ratio) hippocampus [1, 10]: 1.419 ± 0.048 | age-dependent increase in SUVR in the cerebral neocortex and hippocampus (FIG. 5) ([1]; mixed diet 3 mg/g-food with ABT 1 mg/g-food): tended to be suppressed | increase in PET tracer accumulation in each brain region with aging (average SUVR images, FIG. 4) ([1]; mixed diet 3 mg/g-food with ABT 1 mg/g-food, ages 4, 6 and 8 months): suppressed
